Test results taken from article PMC5424327, “Boosting LPMO-driven lignocellulose degradation by polyphenol oxidase-activated lignin building blocks” (Biotechnology for Biofuels, 2017).

Biological target: T1, MtPPO7 (Thermothelomyces thermophilus, UniProt A0A1C9CXH9)
T1 construct: secreted enzyme over-expressed in homologous M. thermophila C1 (low protease/low (hemi-)cellulase strain), fractionated from culture broth; KX772412 is printed as 'UniProt' but has GenBank format
T1 sequence (A0A1C9CXH9 19-420): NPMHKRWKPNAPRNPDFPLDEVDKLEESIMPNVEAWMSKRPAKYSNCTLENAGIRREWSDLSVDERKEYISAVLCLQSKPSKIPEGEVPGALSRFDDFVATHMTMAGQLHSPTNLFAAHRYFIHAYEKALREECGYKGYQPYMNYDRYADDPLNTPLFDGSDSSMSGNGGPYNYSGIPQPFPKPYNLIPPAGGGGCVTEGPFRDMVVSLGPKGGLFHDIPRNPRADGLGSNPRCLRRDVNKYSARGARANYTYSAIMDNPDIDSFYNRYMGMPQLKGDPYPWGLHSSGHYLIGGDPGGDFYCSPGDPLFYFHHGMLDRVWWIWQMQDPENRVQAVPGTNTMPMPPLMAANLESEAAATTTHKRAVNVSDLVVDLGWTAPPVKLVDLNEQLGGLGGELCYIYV
Assay: UHPLC-UV-MSn of substrate conversion
Format: biochemical
Conditions: 2 mM substrate, 5.0 ug/mL enzyme, 50 mM potassium phosphate pH 6.0, 2.5 uM CuCl2, 50 °C, 24 h; ortho-hydroxylation

Compound: COc1ccccc1O [compound 9, Guaiacol]
- conversion (%): The conversion of guaiacol by MtPPO7 resulted in the initial formation of 3-methoxycatechol
